Results taken from patent publication US20230226218A1, “Red Cell Extracellular Vesicles (RCEVs) Containing Cargoes and Methods of Use and Production Thereof” (ERYTECH PHARMA, priority 2020, published 2023).

What was measured:
Assay type in all cases: cell-based, human
THP1-derived macrophages = experiment: pHrodo in vitro phagocytosis assay, THP1-derived macrophages; settings: 25k EVs/cell, STINGa 0.14 μg/ml, 48 h, FIG. 18-19
Description: To test the ability of the RCEVs and CLRCEVs to be taken up by immune cells, we developed an in vitro phagocytosis protocol based upon the THP1 monocyte cell line. Briefly, we determined THP1 cells could be effectively differentiated to become more macrophage-like by treating them with PMA for 3 days followed by 4 days of resting in culture media without PMA. Thereafter, we applied various test substances (e.g. EVs-STINGa, EVs-proRBC, free STINGa, each+/=a reporter dye) to either the undifferentiated or differentiated THP1 cells and observed the phagocytosis activity.
As shown schematically in FIG. 12, pHrodo®-labeled cells or vesicles (e.g. EVs) are added to phagocytic cells, but while they are outside of the cells, there is little to no fluorescence at the approximately pH 7.4 extracellular environment. When the relevant cellular receptors are engaged, a phagocytic cup forms around the labeled cells or vesicles. Finally, an acidic phagosome forms, causing the pHrodo® to emit fluorescence.
As an initial study, the THP1 cells were seeded as follows: 24,000, 34,000, and 44,000 cells/well. […] Labeled EVs-STINGa were added to differentiated THP1 cells and incubated for 12 h and the […] device was set to read the wells every 30 minutes. […] In these greyscale micrograms, the original red fluorescence appears black inside the cells. […]

STING = experiment: THP1-Dual IRF-Lucia luciferase reporter assay (QUANTI-Luc); settings: 0.5, 1.0, 1.5, 2.0 μg/mL STINGa; 100k cells/well; 24 h
Experimental: First, indirect measurements were made using the THP1-Dual™ cells (InvivoGen), which are derived from the human THP-1 monocyte cell line and contain a stably integrated inducible IRF-Lucia luciferase reporter construct that expresses luciferase when STING is activated (e.g. by STING agonists including CDN).
Briefly, 100k cells/well were seeded and then treated with different concentrations of free STING agonist (“STINGa”) (0.5, 1.0, 1.5, and 2.0 μg/mL), EVs-STINGa (also referred to as “ERY-STINGa-CLRCEV” or “STINGa-CLRCEV” throughout) (0.5, 1.0, 1.5, and 2.0 μg/mL, carried by the indicated amounts of EVs), and EVs-proRBC. After 24 h, the supernatants were recovered and subjected to QUANTI-Luc™ detection according to the manufacturer's instructions. […] If so, it is envisioned that the in vivo efficacy of EV-STINGa (or any EV-[immune modulator] for that matter) will depend upon the capacity of target cells for taking up the CLRCEVs. It is further envisioned that if the THP1-Dual monocytes had been differentiated into macrophages, the highest dose of EVs-STINGa would have elicited at least as much luciferase activity as the highest dose of free STINGa.

THP1 macrophages = experiment: Cytokine release by THP1 macrophages (BioLegend bead kit, flow cytometry)
Experimental: In a second approach, the levels of IL-1b, IL-6, TNF-α, and IFN-β were measured after THP1 macrophages were incubated with varying concentrations of STINGa, STINGa-CLRCEVs, or proRBC EVs.
[…] Supernatants were collected at 6 h and 24 h after stimulation and frozen until quantification. Supernatants were analyzed by flow cytometry using the BioLegend kit with four (4) different beads recognizing IL-1b, IL-6, TNF-α, IFN-β.
It has been reported that vesicles from packed red blood cell (pRBC) units bind to monocytes and induce proinflammatory cytokines, boosting T-cell responses in vitro (Danesh et al 2013). To test whether CLRCEVs and/or RCEVs would likewise induce these cytokines, THP1 macrophages were grown and treated as before and the levels of IL-6, IL-1b, and TNF-α were measured.

## Nc1ncnc2c1ncn2[C@@H]1O[C@@H]2COP(=O)([S-])O[C@@H]3[C@H](O)[C@@H](COP([O-])(=S)O[C@H]2[C@H]1O)O[C@H]3n1cnc2c(N)ncnc21.[Na+].[Na+] (stereo partly drawn) [free STINGa, ADU-S100]
THP1-derived macrophages
  red fluorescence (uptake): neither free STINGa+pHrodo nor pHrodo alone produced appreciable fluorescence
STING
  luciferase activity (IRF pathway activation): a clear dose response effect was observed
THP1 macrophages; 3 μg/ml STINGa (EVs 7.6E10 EVs/mL), time not stated
  IFN-β: 140 pg/mL
THP1 macrophages; 8 μg/mL STINGa (EVs 2.0E11 EVs/mL), 6 h
  IFN-β: 400 pg/mL
THP1 macrophages; 8 μg/mL STINGa (EVs 2.0E11 EVs/mL), 24 h
  IFN-β: 318 pg/mL
THP1 macrophages; 2.5E+10 EVs/mL, STINGa 1 μg/ml
  IL-6: 25 pg/mL
THP1 macrophages; 5.0E10 EVs/mL, STINGa 2 μg/ml
  IL-6: 38 pg/mL
THP1 macrophages; 8, 2 or 1 μg/mL, 6 h and 24 h
  IL-1b release: did not induce the release of IL-1b
THP1 macrophages; 24 h, 2.0E11 EVs/mL, STINGa 8 μg/ml
  IL-6: 453 pg/mL
